Measurements as given in the NIST ThermoML archive (doi:10.1021/je300938w).
Numbers after ± are expanded uncertainties.

Columns and labels:
[1] = refractive index (Na D-line) (dimensionless); settings: 101.33 kPa, Liquid, Standard Abbe refractometry
[2] = 101.33 kPa, Liquid; for viscosity: Concentric cylinders viscometry; for mass density: Vibrating tube method

Row | SMILES | refractive index ([1]; 298.15 K) | viscosity ([2]; 298.15 K) [mPa·s] | mass density ([2]; 298.15 K) [kg/m3] | refractive index ([1]; 323.15 K) | viscosity ([2]; 323.15 K) [mPa·s] | mass density ([2]; 323.15 K) [kg/m3] | other results
1 | OCCNCCO [diethanolamine] | 1.4764 ± 0.00073 | 566.57 ± 46 | 1093.22 ± 0.17 | – | – | – | –
2 | O [water] | 1.33249 ± 0.00042 | 0.9123 ± 0.0097 | – | – | – | – | refractive index ([1]; 293.15 K): 1.33304 ± 0.00042; viscosity ([2]; 293.15 K): 1.019 ± 0.01 mPa·s
3 | CC(O)CN (centres undefined) [1-amino-2-propanol] | 1.4459 ± 0.00082 | 23.26 ± 0.41 | 956.644 ± 1 | – | – | – | –
4 | CC(O)CN(CC(C)O)CC(C)O (centres undefined) [triisopropanolamine] | – | – | – | 1.45233 ± 0.0012 | 132.3 ± 5.5 | 990.616 ± 6.8 | –
5 | CC(O)CNCC(C)O (centres undefined) [N-(2-hydroxypropyl)-2-hydroxy-1-propanamine] | – | – | – | 1.45139 ± 0.00068 | 123.21 ± 4.4 | 984.835 ± 1.1 | refractive index ([1]; 313.15 K): 1.45517 ± 0.00068; viscosity ([2]; 313.15 K): 308.54 ± 11 mPa·s; mass density ([2]; 313.15 K): 992.46 ± 1.1 kg/m3
